Results on two compounds are retold here after patent US9775797B2, “Personal care composition” (Conopco, Inc., priority 2012, dated 2017).

The term % Inhibition denotes the share of the control response that was lost under treatment. What is called inhibition is the relative decrease from the control value, in per cent.

Each structure is given as a SMILES string.

For this assay, the system named is HaCaT and HeMnDP co-culture. In words: coculture melanin content assay (after Calcein-AM viability check). Conditions: melanin content vs control, 72 hrs incubation. It counts as cell-based. Here is the method:
The samples at various concentrations were analysed for skin lightening efficacy using the coculture melanin content assay, the details of which are given below: Set up of Co-cultures: • 1. 4*10^4 HaCaT and 4×10^4 […] (1:1) per well (single wells/treatment) in 12-well Nunc plates on Day 0 are seeded so as to establish a co-culture system. • 2. The volume of media per well should be 1 mL of a 1:1 mix of Melanocyte Growth Media and Keratinocyte Growth Media • 3. 24 hrs later, fresh media containing actives are added. Again 1 mL of a 1:1 mix of MGM and KGM for active addition are used. • 4. Plates are incubated for 72 hrs in a 37° C. CO2 incubator. • 5. […] In the meantime, the fluorescence is measured (excitation at 490 nm and emission at 520 nm) using TECAN instrument after 30 min of dye incubation. • 5. After reading the plate, the buffer containing Calcein is removed and melanin content assay is then carried out. […] After the reading for Calcein-AM is taken, the buffer containing Calcein-AM is removed from all the wells. • 2. […] The absorbance is measured in the Lab-5 Tecan instrument at 405 nm. • 6. For non-cytotoxic concentrations (based on Calcein cut-off of ±15% of control), the average MCA is calculated and reported as MCA as percentage of the control sample. The % inhibition is then calculated. […]

As to `O=C1C[C@@H](c2ccc(O)c(O[C@@H]3O[C@H](CO)[C@@H](O)[C@H](O)[C@H]3O)c2)Oc2cc(O[C@@H]3O[C@H](CO)[C@@H](O)[C@H](O)[C@H]3O)ccc21` [Butrin, butrin], where the note is “sample concentration 0.5 ppm”, the “% Inhibition” value is given as 31%.
In the case of `O=c1cc(CO)occ1O` [Example 3, Kojic Acid], under “Homo sapiens, HaCaT, sample concentration 14.2 ppm”, the inhibition at 14.2 ppm is 22%.
